Measurements reported in patent publication US20260000079A1, “COMPOSITIONS AND METHODS FOR MODULATING IMMUNITY IN PLANTS” (BOYCE THOMPSON INSTITUTE FOR PLANT RESEARCH, INC., priority 2019, published 2026).

Tests used:
Arabidopsis leaves = assay: LC-MS time course of Arabidopsis leaves infiltrated with ascr #18; type: in vivo, Arabidopsis thaliana; details: Arabidopsis leaves infiltrated with 1 μM ascr #18
Text: FIG. 2A provides LC-MS analysis of tomato roots treated with ascr #18 or ^13C2-labeled ascr #18. Plants treated with ^13C2-labeled ascr #18 show peaks at 333.21932 and 249.12542, representing [M-H]^− of ^13C2-ascr #18 and ^13C2-ascr #9, but not at 331.21261 and 247.11871, which correspond to [M-H]^− of ascr #18 and ascr #9, and vice versa. Structures of ascr #18 and ascr #9 indicating the positions of the ^13C2-label are shown above ion chromatograms. Peaks marked with an asterisk represent unrelated peaks. FIGS. 2B and 2C provide graphs showing the relative abundances of ascr #18 and ascr #9, respectively, as measured by LC-MS. Four-week old Arabidopsis leaves were infiltrated with 1 μM ascr #18, and leaf tissue were harvested for LC-MS analyses over a period of 96 hours post infiltration of ascr #18. Data are averages±SEM (n=3). FIG. 2D provides LC-MS analyses of tomato leaves infiltrated with 1 μM ascr #18. Tissues were collected over a 12 hour period. Abundances of ascr #18 and ascr #9 are shown as the peak area, as measured by LC-MS. […] To test whether microbes are required for the observed metabolic transformations, leaves of 4-week old Arabidopsis plants were directly infiltrated with ascr #18 and leaf tissue was subsequently harvested for analysis by LC-MS as above. […] About 50% of ascr #18 was metabolized during the first 12 hours, during which time concomitant accumulation of ascr #9 was observed. Formation of ascr #9 was also observed in leaves of 4-week old tomato plants infiltrated with ascr #18 (FIG. 2D).

M. incognita J2 larvae [1] = assay: J2 larvae touching roots of pretreated seedlings in PF-127 gel; type: in vivo, Meloidogyne incognita; details: 48 hours pretreatment
Protocol: FIG. 4A provides a schematic of the experimental designs for assessing activation of defense pathways and resistance to nematodes and bacteria. […] Bacterial growth was assayed 3 days post inoculation. Data are averages±s.d. (n=17). […] Arabidopsis seedlings were treated with buffer or the indicated concentrations of ascr #18 for 48 hours before inoculation with approximately 300 freshly hatched M. incognita J2 larvae. The numbers of root galls of infected plants were counted 6 weeks post inoculation. Data are averages±s.d. (n≥15). […] Arabidopsis seedlings were treated with the indicated concentrations of ascr #18 for 48 hours before transfer into 12-well plates containing Pluronic® F-127 gel with ˜200 freshly hatched M. incognita J2 larvae. Larvae touching root tips (FIG. 4D) or the whole area of roots (FIG. 4E) were counted at 6 hours post seedling transfer. Data are average±s.d. (n=12). […] Transcript levels were determined by qRT-PCR and plotted as relative fold-change compared to mock treated plants. Data are averages±s.d (n≥6). *P≤0.05; **P≤0.005; ***P≤0.0005; two-tailed t-test.
FIG. 6A provides a graph of the number of nematodes touching the root tips of Arabidopsis wildtype and acx1acx5 treated with 50 nM ascr #18 or ascr #9 for 48 hours before transfer into 12-well plates containing Pluronic® F-127 gel with ˜200 freshly hatched M. incognita J2 larvae. Larvae touching the terminal part of roots were counted at 6 hours after seedling transfer. Data are average±s.d. (n=12). FIG. 6B provides a schematic of a Petri dish as shown in the plate layout. […] Larvae in the indicated scoring areas were counted after 4 hours. […] FIG. 6D provides the attraction index for different concentrations of ascr #18, ascr #9, or ascr #18/ascr #9 mixtures measured using the layout shown in FIG. 6C. […]
In a second experiment, wildtype and acx1acx5 were treated with ascr #18 for 48 hours prior to moving seedlings to a PF-127 gel containing approximately 200 M. incognita second-stage larvae (J2) (FIG. 4A, 4D, 4E). J2 larvae touching the roots were counted at 6 hours post seedling transfer.

M. incognita J2 larvae [2] = assay: Quantitative chemotaxis population assay (worm attraction assay); type: in vivo, Meloidogyne incognita; details: 6-cm Petri dish, larvae counted after 4 hours
Protocol: FIG. 6A provides a graph of the number of nematodes touching the root tips of Arabidopsis wildtype and acx1acx5 treated with 50 nM ascr #18 or ascr #9 for 48 hours before transfer into 12-well plates containing Pluronic® F-127 gel with ˜200 freshly hatched M. incognita J2 larvae. Larvae touching the terminal part of roots were counted at 6 hours after seedling transfer. Data are average±s.d. (n=12). FIG. 6B provides a schematic of a Petri dish as shown in the plate layout. For FIG. 6C, the indicated concentrations of ascr #18, ascr #9, or ascr #18/ascr #9 mixtures were placed on one side with mock solutions on the other side of the 6-cm Petri dish. Subsequently, approximately 100 freshly hatched M. incognita J2 larvae were placed in the center of the plate. Larvae in the indicated scoring areas were counted after 4 hours. Data are averages±s.d. (n=12), **P≤0.003; two-tailed t-test. FIG. 6D provides the attraction index for different concentrations of ascr #18, ascr #9, or ascr #18/ascr #9 mixtures measured using the layout shown in FIG. 6C. Data are averages±SEM (n=12), **P≤0.002; two-tailed t-test.
Ascarosides were dissolved in ethanol to prepare millimolar stock solutions. […]
Chemotaxis plates were prepared by pouring 8 mL of 2% bacto-agar (BD Biosciences) into 6-cm Petri dishes. […] Worms that remained in the center 0.5-cm-wide strip were not counted. […]

CC1O[C@@H](O[C@@H](C)CCCCCCCCC(=O)O)C(O)C[C@H]1O (stereo in doubt) [ascr #18, (10R)-(3′R,5′R-dihydroxy-6′S-methyl-(2H)-tetrahydropyran-2-yloxy)-undecanoic acid]
ascr #18 metabolized (Arabidopsis leaves; first 12 hours): About 50%
effect on M. incognita behavior (J2 larvae touching roots) (M. incognita J2 larvae [1]; wildtype or mutant, 1 μM): did not significantly affect
numbers of J2 larvae touching the root tips or whole root area (M. incognita J2 larvae [1]; wildtype, 50 nM, counted 6 hours post transfer): significantly reduced
chemotaxis behavior of M. incognita J2 larvae (attraction index) (M. incognita J2 larvae [2]): no significant effect

C[C@H](CCC(=O)O)O[C@@H]1O[C@@H](C)[C@H](O)C[C@H]1O [ascr #9]
time of peak ascr #9 concentration post-infiltration (Arabidopsis leaves): ≤ 12 h
ascr #9 concentration at 96 hours (Arabidopsis leaves; 96 hours): very low levels
effect on infection (J2 larvae touching root tips) (M. incognita J2 larvae [1]; wildtype or acx1acx5, 50 nM): did not significantly reduce infection
chemotaxis behavior of M. incognita J2 larvae (attraction index) (M. incognita J2 larvae [2]): no significant effect
